Assay results taken from patent US11866431B2, “Bicyclic compounds” (Vivace Therapeutics, Inc., priority 2018, dated 2024).

What follows are molecules tested on 8XTBD luciferase reporter (YAP reporter) in HEK293T cells (assay: YAP Reporter Assay). Conditions: Homo sapiens, HEK-293T; HEK293T cells stably transfected with 8XTBD luciferase reporter and pRLTK; 24-hr incubation; top concentration 3 μM; read-out: Firefly Luciferase IC50.
Type: cell-based
Method in brief: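 Dual-luciferase read-out after 24 h compound exposure at 37° C, 5% CO2; IC50 and maximum inhibition given separately for 8XTBD-firefly and TK-renilla signals. Stable HEK293T reporter cells, 3×10^3/well, received 10-point 1:3 series starting 3 μM final, in quadruplicate.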

SMILES | IC50
NC(=O)c1nc(CNC(=O)c2ccc3c(-c4ccc(C(F)(F)F)cc4)cccc3c2)ns1 [Compound 184, 3-((5-(4-(Trifluoromethyl)phenyl)-2-naphthamido)methyl)-1,2,4-thiadiazole-5-carboxamide] | < 0.1 µM
O=C(NCc1ccncn1)c1ccc2c(-c3ccc(C(F)(F)F)cc3)cccc2c1 [Compound 185, N-(pyrimidin-4-ylmethyl)-5-(4-(trifluoromethyl)phenyl)-2-naphthamide] | < 0.1 µM
N#Cc1cc(CNC(=O)c2ccc3c(-c4ccc(C(F)(F)F)cc4)cccc3c2)ccn1 [Compound 186, N-((2-cyanopyridin-4-yl)methyl)-5-(4-(trifluoromethyl)phenyl)-2-naphthamide] | < 0.1 µM
O=C(NCc1cccc(COc2c(F)cccc2F)n1)c1ccc2c(-c3ccc(C(F)(F)F)cc3)cccc2c1 [Compound 187, N-((6-((2,6-difluorophenoxy)methyl)pyridin-2-yl)methyl)-5-(4-(trifluoromethyl)phenyl)-2-naphthamide] | 0.1 to 1 µM
O=C(NC(CCO)c1ccccn1)c1ccc2c(-c3ccc(C(F)(F)F)cc3)cccc2c1 (centres unmarked) [Compound 188, N-[3-hydroxy-1-(2-pyridyl)propyl]-5-[4-(trifluoromethyl)phenyl]naphthalene-2-carboxamide] | < 0.1 µM
O=C(NCc1cccc(F)n1)c1ccc2c(-c3ccc(C(F)(F)F)cc3)cccc2c1 [Compound 190, N-((6-fluoropyridin-2-yl)methyl)-5-(4-(trifluoromethyl)phenyl)-2-naphthamide] | 0.1 to 1 µM
N#Cc1cccc(CNC(=O)c2ccc3c(-c4ccc(C(F)(F)F)cc4)cccc3c2)n1 [Compound 191, N-((6-cyanopyridin-2-yl)methyl)-5-(4-(trifluoromethyl)phenyl)-2-naphthamide] | 0.1 to 1 µM
O=C(NCc1cccc(COc2ccon2)c1)c1ccc2c(-c3ccc(C(F)(F)F)cc3)cccc2c1 [Compound 192, N-(3-((isoxazol-3-yloxy)methyl)benzyl)-5-(4-(trifluoromethyl)phenyl)-2-naphthamide] | 0.1 to 1 µM
O=C(NCc1ncsn1)c1ccc2c(-c3ccc(C(F)(F)F)cc3)cccc2c1 [Compound 193, N-((1,2,4-thiadiazol-3-yl)methyl)-5-(4-(trifluoromethyl)phenyl)-2-naphthamide] | < 0.1 µM
C[C@H](NC(=O)c1ccc2c(-c3ccc(C(F)(F)F)cc3)cccc2c1)c1cn(C)cn1 [Compound 195, (S)—N-(1-(1-methyl-1H-imidazol-4-yl)ethyl)-5-(4-(trifluoromethyl)phenyl)-2-naphthamide] | < 0.1 µM
C[C@@H](NC(=O)c1ccc2c(-c3ccc(C(F)(F)F)cc3)cccc2c1)c1cn(C)cn1 [Compound 196, (R)—N-(1-(1-methyl-1H-imidazol-4-yl)ethyl)-5-(4-(trifluoromethyl)phenyl)-2-naphthamide] | 0.1 to 1 µM
O=C(NC(CO)Cc1ccccn1)c1ccc2c(-c3ccc(C(F)(F)F)cc3)cccc2c1 (centres unmarked) [Compound 197, N-(1-hydroxy-3-(pyridin-2-yl)propan-2-yl)-5-(4-(trifluoromethyl)phenyl)-2-naphthamide] | 0.1 to 1 µM
O=C(NCCC/C=C/COc1ccon1)c1ccc2c(-c3ccc(C(F)(F)F)cc3)cccc2c1 [Compound 198, N-[(E)-6-isoxazol-3-yloxyhex-4-enyl]-5-[4-(trifluoromethyl)phenyl]naphthalene-2-carboxamide] | < 0.1 µM
CC(=O)N1CC([C@@H](C)NC(=O)c2ccc3c(-c4ccc(C(F)(F)F)cc4)cccc3c2)C1 [Compound 199, (R)—N-(1-(1-acetylazetidin-3-yl)ethyl)-5-(4-(trifluoromethyl)phenyl)-2-naphthamide] | 0.1 to 1 µM
CC(=O)N1CC([C@H](C)NC(=O)c2ccc3c(-c4ccc(C(F)(F)F)cc4)cccc3c2)C1 [Compound 200, (S)—N-(1-(1-acetylazetidin-3-yl)ethyl)-5-(4-(trifluoromethyl)phenyl)-2-naphthamide] | 0.1 to 1 µM
CC(NC(=O)c1ccc2c(-c3ccc(C(F)(F)F)cc3)cccc2c1)c1nsc(C(N)=O)n1 (centres unmarked) [Compound 201, 3-(1-(5-(4-(Trifluoromethyl)phenyl)-2-naphthamido)ethyl)-1,2,4-thiadiazole-5-carboxamide] | < 0.1 µM
NC(=O)/C=C/CCCNC(=O)c1ccc2c(-c3ccc(C(F)(F)F)cc3)cccc2c1 [Compound 202, N-[(E)-6-amino-6-oxo-hex-4-enyl]-5-[4-(trifluoromethyl)phenyl]naphthalene-2-carboxamide] | 0.1 to 1 µM
C[C@@H](NC(=O)c1ccc2c(-c3ccc(C(F)(F)F)cc3)cccc2c1)C1CNC1 [Compound 203, (R)—N-(1-(azetidin-3-yl)ethyl)-5-(4-(trifluoromethyl)phenyl)-2-naphthamide] | < 0.1 µM
C[C@H](NC(=O)c1ccc2c(-c3ccc(C(F)(F)F)cc3)cccc2c1)C1CNC1 [Compound 204, (S)—N-(1-(azetidin-3-yl)ethyl)-5-(4-(trifluoromethyl)phenyl)-2-naphthamide] | 0.1 to 1 µM

SMILES | IC50
C[C@@H](NC(=O)c1ccc2c(-c3ccc(C(F)(F)F)cc3)cccc2c1)c1ccccc1Cl [Compound 206, (R)—N-(1-(2-chlorophenyl)ethyl)-5-(4-(trifluoromethyl)phenyl)-2-naphthamide] | < 0.1 µM
COCCOc1cccc(CNC(=O)c2ccc3c(-c4ccc(C(F)(F)F)cc4)cccc3c2)c1 [Compound 208, N-(3-(2-methoxyethoxy)benzyl)-5-(4-(trifluoromethyl)phenyl)-2-naphthamide] | < 0.1 µM
O=C(O)/C=C/CCNC(=O)c1ccc2c(-c3ccc(C(F)(F)F)cc3)cccc2c1 [Compound 209, (E)-5-[[5-[4-(trifluoromethyl)phenyl]naphthalene-2-carbonyl]amino]pent-2-enoic Acid] | 1 to 3 µM
COc1cc(CNC(=O)c2ccc3c(-c4ccc(C(F)(F)F)cc4)cccc3c2)ccn1 [Compound 210, N-((2-methoxypyridin-4-yl)methyl)-5-(4-(trifluoromethyl)phenyl)-2-naphthamide] | 0.1 to 1 µM
O=C(NCc1ccnc(F)c1)c1ccc2c(-c3ccc(C(F)(F)F)cc3)cccc2c1 [Compound 211, N-((2-fluoropyridin-4-yl)methyl)-5-(4-(trifluoromethyl)phenyl)-2-naphthamide] | < 0.1 µM
COCC(C)(C)NC(=O)c1ccc2c(-c3ccc(C(F)(F)F)cc3)cccc2c1 [Compound 212, N-(1-methoxy-2-methylpropan-2-yl)-5-(4-(trifluoromethyl)phenyl)-2-naphthamide] | < 0.1 µM
C[C@@H](NC(=O)c1ccc2c(-c3ccc(C(F)(F)F)cc3)cccc2c1)c1cc(N)ccn1 [Compound 213, (R)—N-(1-(4-aminopyridin-2-yl)ethyl)-5-(4-(trifluoromethyl)phenyl)-2-naphthamide] | 0.1 to 1 µM
C[C@H](NC(=O)c1ccc2c(-c3ccc(C(F)(F)F)cc3)cccc2c1)c1cc(N)ccn1 [Compound 214, (S)—N-(1-(4-aminopyridin-2-yl)ethyl)-5-(4-(trifluoromethyl)phenyl)-2-naphthamide] | 1 to 3 µM
N#Cc1cccc(CNC(=O)c2ccc3c(-c4ccc(C(F)(F)F)cc4)cccc3c2)c1 [Compound 215, N-(3-cyanobenzyl)-5-(4-(trifluoromethyl)phenyl)-2-naphthamide] | < 0.1 µM
N#C/C=C\CCNC(=O)c1ccc2c(-c3ccc(C(F)(F)F)cc3)cccc2c1 [Compound 216, N—[(Z)-4-cyanobut-3-enyl]-5-[4-(trifluoromethyl)phenyl]naphthalene-2-carboxamide] | 0.1 to 1 µM
N#C/C=C/CCNC(=O)c1ccc2c(-c3ccc(C(F)(F)F)cc3)cccc2c1 [Compound 217, N-[(E)-4-cyanobut-3-enyl]-5-[4-(trifluoromethyl)phenyl]naphthalene-2-carboxamide] | < 0.1 µM
C[C@@H](NC(=O)c1ccc2c(-c3ccc(C(F)(F)F)cc3)cccc2c1)c1cccnc1N [Compound 218, (R)—N-[1-(2-amino-3-pyridyl)ethyl]-5-[4-(trifluoromethyl)phenyl]naphthalene-2-carboxamide] | < 0.1 µM
O=C(NCc1ncns1)c1ccc2c(-c3ccc(C(F)(F)F)cc3)cccc2c1 [Compound 220, N-((1,2,4-thiadiazol-5-yl)methyl)-5-(4-(trifluoromethyl)phenyl)-2-naphthamide] | < 0.1 µM
Cc1nsc(CNC(=O)c2ccc3c(-c4ccc(C(F)(F)F)cc4)cccc3c2)n1 [Compound 221, N-((3-methyl-1,2,4-thiadiazol-5-yl)methyl)-5-(4-(trifluoromethyl)phenyl)-2-naphthamide] | < 0.1 µM
NC(=O)/C=C/CCNC(=O)c1ccc2c(-c3ccc(C(F)(F)F)cc3)cccc2c1 [Compound 222, N-[(E)-5-amino-5-oxo-pent-3-enyl]-5-[4-(trifluoromethyl)phenyl]naphthalene-2-carboxamide] | < 0.1 µM
C[C@@H](NC(=O)c1ccc2c(-c3ccc(C(F)(F)F)cc3)cccc2c1)c1cc(N(C)C)ccn1 [Compound 223, (R)—N-(1-(4-(dimethylamino)pyridin-2-yl)ethyl)-5-(4-(trifluoromethyl)phenyl)-2-naphthamide] | 0.1 to 1 µM
C[C@H](NC(=O)c1ccc2c(-c3ccc(C(F)(F)F)cc3)cccc2c1)c1cc(N(C)C)ccn1 [Compound 224, (S)—N-(1-(4-(dimethylamino)pyridin-2-yl)ethyl)-5-(4-(trifluoromethyl)phenyl)-2-naphthamide] | 1 to 3 µM
CC(NC(=O)c1ccc2c(-c3ccc(C(F)(F)F)cc3)cccc2c1)c1cc(Br)ccn1 (centres unmarked) [Compound 225, N-(1-(4-bromopyridin-2-yl)ethyl)-5-(4-(trifluoromethyl)phenyl)-2-naphthamide] | < 0.1 µM
N#C/C=C/CCCNC(=O)c1ccc2c(-c3ccc(C(F)(F)F)cc3)cccc2c1 [Compound 227, N-[(E)-5-cyanopent-4-enyl]-5-[4-(trifluoromethyl)phenyl]naphthalene-2-carboxamide] | < 0.1 µM
